From article PMC7459823, “Characterization of Five Novel Anti-MRSA Compounds Identified Using a Whole-Animal Caenorhabditis elegans/Galleria mellonella Sequential-Screening Approach” (Antibiotics, 2020)
Values after ≈ are worked out from the molar mass of the structure shown.

Legend:
[1] = test system: MRSA MW2 infection of Galleria mellonella larvae; assay: G. mellonella–MRSA survival assay; type: in vivo; conditions: larvae infected with MRSA MW2 5 × 10^5 CFU, compound 10 mg/kg 2 h after infection, monitored 120 h; untreated 1 day
Experimental: Larvae were infected with MRSA MW2 (5 × 10^5 CFU) in the left rear proleg, and after two hours, the compounds were introduced separately at 10 mg/kg into the right rear proleg and larvae survival was monitored for 120 h.
Assays were performed as described previously. Briefly, sixteen randomly selected G. mellonella larvae (Vanderhorst, Inc., St. Mary’s, OH, USA) between 300–350 mg were used for each test group. MRSA-MW2 was grown in Tryptic Soy Broth (TSB), washed with phosphate buffered saline (PBS, pH = 7.4), and diluted to OD600 = 0.3 before inoculation into G. mellonella larvae. A 10-μL inoculum was injected into the last left proleg using a 10-μL Hamilton syringe. After 2 h, compounds were administered into the last right proleg and larvae were incubated at 37 °C. G.mellonella survival was monitored for 120 h, and death was confirmed when there was no response. Killing curves and differences in survival were analyzed by the Kaplan–Meier method using GraphPad Prism version 8 (GraphPad Software, La Jolla, CA, USA). Statistical analysis (Kruskal–Wallis test) was carried out using the same program.

[2] = test system: clinical S. aureus isolate BF4; assay: Broth microdilution MIC, clinical S. aureus isolate BF4; type: cell-based; conditions: Staphylococcus aureus; BF4; read-out: MIC
Experimental: (§1) In vitro antibacterial activities were determined using the broth microdilution method. Assays were performed as described in Clinical and Laboratory Standards Institute protocols in triplicate using cation-adjusted Muller–Hinton broth (Becton Dickinson and Company, Franklin Lakes, NJ, USA) in 96-well plates with a total assay volume of 100 µL. Two-fold serial dilutions of test compounds were prepared over the concentration range of 1–64 µg/mL. The bacterial concentration was adjusted to OD600 = 0.06. […] A 10 µL aliquot from each well in the MIC assays was plated onto Muller–Hinton agar (Becton Dickinson and Company, Franklin Lakes, NJ, USA) and incubated overnight at 37 °C. The lowest concentration of compound for which no growth was observed on agar plates was reported as the minimal bactericidal concentration (MBC).

[3] = test system: clinical S. aureus isolate BF1; assay: Broth microdilution MIC, clinical S. aureus isolate BF1; type: cell-based; conditions: Staphylococcus aureus; BF1; read-out: MIC
Experimental: as §1

Acinetobacter baumannii = assay: Broth microdilution MIC, Acinetobacter baumannii; type: cell-based; conditions: read-out: MIC
Experimental: as §1

Enterococcus faecium = assay: Broth microdilution MIC, Enterococcus faecium; type: cell-based; conditions: read-out: MIC
Experimental: as §1

`Cc1cc(I)ccc1Nc1c(C(=O)NOCC2CC2)cc(F)c(F)c1F` [PD198306, N-(Cyclopropylmethoxy)-3,4,5-trifluoro-2-[(4-iodo-2-methylphenyl)amino]-benzamide] was tested, and the median post-infection survival [1] was 2 days, the MIC [2] was 2 µg/mL (≈ 4.2 µM) and the MIC [3] was 2 µg/mL (≈ 4.2 µM). It also gave an MIC (Acinetobacter baumannii) of 32 µg/mL (≈ 67.2 µM) and an MIC (Enterococcus faecium) of 2 µg/mL (≈ 4.2 µM).
